Data from the NIST ThermoML archive (doi:10.1016/j.jct.2010.04.013).

Experiment: mn = molality of the nth substance listed, in mol/kg
Details: 101 kPa, Liquid; for mass density: Vibrating tube method; for speed of sound: Pulse-echo method

[Ca+2].[O-][Cl+3]([O-])([O-])[O-].[O-][Cl+3]([O-])([O-])[O-] [calcium diperchlorate] + C[S+](C)[O-]
Details | mass density, 293.15 K [kg/m3] | mass density, 298.15 K [kg/m3] | mass density, 303.15 K [kg/m3] | mass density, 313.15 K [kg/m3] | mass density, 323.15 K [kg/m3] | mass density, 333.15 K [kg/m3] | speed of sound, 298.15 K [m/s]
m1 = 0.01996 | 1103.64 | 1098.63 | 1093.62 | 1083.61 | 1073.6 | 1063.59 | –
m1 = 0.02505 | 1104.52 | 1099.51 | 1094.5 | 1084.5 | 1074.49 | 1064.5 | –
m1 = 0.03085 | 1105.52 | 1100.51 | 1095.51 | 1085.52 | 1075.52 | 1065.54 | 1486.8
m1 = 0.03807 | 1106.77 | 1101.77 | 1096.77 | 1086.78 | 1076.8 | 1066.82 | 1487.3
m1 = 0.0488 | 1108.62 | 1103.63 | 1098.64 | 1088.67 | 1078.7 | 1068.74 | 1488.2
m1 = 0.06089 | 1110.72 | 1105.73 | 1100.74 | 1090.8 | 1080.86 | 1070.91 | 1489.3
m1 = 0.07827 | 1113.74 | 1108.77 | 1103.81 | 1093.88 | 1083.96 | 1074.05 | 1490.8
m1 = 0.1006 | 1117.66 | 1112.7 | 1107.75 | 1097.85 | 1087.97 | 1078.08 | 1492.6
m1 = 0.1214 | 1121.33 | 1116.39 | 1111.45 | 1101.58 | 1091.73 | 1081.88 | 1494.5
m1 = 0.1417 | 1124.92 | 1119.99 | 1115.06 | 1105.22 | 1095.39 | 1085.57 | 1496.2
m1 = 0.1651 | 1129.07 | 1124.16 | 1119.25 | 1109.44 | 1099.65 | 1089.87 | 1498.2
m1 = 0.1858 | 1132.79 | 1127.88 | 1122.99 | 1113.2 | 1103.45 | 1093.69 | 1500.1

C[S+](C)[O-] [dimethyl sulfoxide] + O=S(=O)([O-])C(F)(F)F.O=S(=O)([O-])C(F)(F)F.[Be+2]
m2 = 0
Details | mass density [kg/m3]
293.15 K | 1100.21
298.15 K | 1095.18
303.15 K | 1090.16
313.15 K | 1080.11
323.15 K | 1070.07
333.15 K | 1060.03

C[S+](C)[O-] [dimethyl sulfoxide] + O=S(=O)([O-])C(F)(F)F.[Na+]
m2 = 0
Details | mass density [kg/m3]
293.15 K | 1100.21
298.15 K | 1095.18
303.15 K | 1090.16
313.15 K | 1080.11
323.15 K | 1090.07
333.15 K | 1080.03

C[S+](C)[O-] [dimethyl sulfoxide] + [Ba+2].[O-][Cl+3]([O-])([O-])[O-].[O-][Cl+3]([O-])([O-])[O-]
m2 = 0
Details | mass density [kg/m3]
293.15 K | 1100.21
298.15 K | 1095.18
303.15 K | 1090.16
313.15 K | 1080.12
323.15 K | 1070.08
333.15 K | 1060.02

C[S+](C)[O-] [dimethyl sulfoxide] + [Ca+2].[O-][Cl+3]([O-])([O-])[O-].[O-][Cl+3]([O-])([O-])[O-]
m2 = 0
Details | mass density [kg/m3]
293.15 K | 1100.21
298.15 K | 1095.18
303.15 K | 1090.16
313.15 K | 1080.12
323.15 K | 1070.08
333.15 K | 1060.02

C[S+](C)[O-] [dimethyl sulfoxide] + [Mg+2].[O-][Cl+3]([O-])([O-])[O-].[O-][Cl+3]([O-])([O-])[O-]
m2 = 0
Details | mass density [kg/m3]
293.15 K | 1100.21
298.15 K | 1095.18
303.15 K | 1090.16
313.15 K | 1080.12
323.15 K | 1070.08
333.15 K | 1060.02

C[S+](C)[O-] [dimethyl sulfoxide] + [O-][Cl+3]([O-])([O-])[O-].[O-][Cl+3]([O-])([O-])[O-].[Sr+2]
m2 = 0
Details | mass density [kg/m3]
293.15 K | 1100.22
298.15 K | 1095.18
303.15 K | 1090.17
313.15 K | 1080.12
323.15 K | 1070.08
333.15 K | 1060.03

[Mg+2].[O-][Cl+3]([O-])([O-])[O-].[O-][Cl+3]([O-])([O-])[O-] [magnesium perchlorate] + CO
Details | mass density, 283.15 K [kg/m3] | mass density, 288.15 K [kg/m3] | mass density, 293.15 K [kg/m3] | mass density, 298.15 K [kg/m3] | mass density, 303.15 K [kg/m3] | mass density, 308.15 K [kg/m3] | mass density, 313.15 K [kg/m3] | speed of sound, 298.15 K [m/s]
m1 = 0.05219 | 809.719 | 805.077 | 800.41 | 795.738 | 791.047 | 786.336 | 781.598 | 1109.9
m1 = 0.06927 | 812.714 | 808.079 | 803.422 | 798.76 | 794.077 | 789.377 | 784.647 | 1112.6
m1 = 0.08495 | 815.487 | 810.862 | 806.214 | 801.554 | 796.877 | 792.189 | 787.47 | 1115.2
m1 = 0.1015 | 818.369 | 813.747 | 809.112 | 804.466 | 799.801 | 795.117 | 790.405 | 1117.5
m1 = 0.1173 | 821.156 | 816.545 | 811.914 | 807.277 | 802.62 | 797.944 | 793.24 | 1120
m1 = 0.1339 | 824.082 | 819.477 | 814.852 | 810.224 | 805.578 | 800.91 | 796.216 | 1122.5
m1 = 0.1663 | 829.827 | 825.238 | 820.63 | 816.008 | 811.382 | 806.732 | 802.054 | 1127.2
m1 = 0.1999 | 835.828 | 831.249 | 826.659 | 822.059 | 817.443 | 812.807 | 808.147 | 1132.5
m1 = 0.2312 | 841.439 | 836.878 | 832.301 | 827.71 | 823.106 | 818.493 | 813.847 | 1137.2
m1 = 0.2628 | 847.212 | 842.663 | 838.096 | 833.522 | 828.937 | 824.333 | 819.703 | 1142
m1 = 0.2917 | 852.468 | 847.932 | 843.38 | 838.819 | 834.243 | 829.645 | 825.025 | 1146.5
m1 = 0.3234 | 858.304 | 853.784 | 849.245 | 844.698 | 840.139 | 835.559 | 830.96 | 1151.8

[Mg+2].[O-][Cl+3]([O-])([O-])[O-].[O-][Cl+3]([O-])([O-])[O-] [magnesium perchlorate] + C[S+](C)[O-]
Details | mass density, 293.15 K [kg/m3] | mass density, 298.15 K [kg/m3] | mass density, 303.15 K [kg/m3] | mass density, 313.15 K [kg/m3] | mass density, 323.15 K [kg/m3] | mass density, 333.15 K [kg/m3] | speed of sound, 298.15 K [m/s]
m1 = 0.02171 | 1103.82 | 1098.81 | 1093.8 | 1083.79 | 1073.79 | 1063.78 | –
m1 = 0.03119 | 1105.4 | 1100.4 | 1095.39 | 1085.4 | 1075.41 | 1065.42 | 1486.8
m1 = 0.04163 | 1107.14 | 1102.15 | 1097.16 | 1087.18 | 1077.2 | 1067.23 | 1487.7
m1 = 0.05295 | 1109.04 | 1104.04 | 1099.06 | 1089.1 | 1079.15 | 1069.19 | 1488.7
m1 = 0.06473 | 1111.01 | 1106.03 | 1101.06 | 1091.11 | 1081.18 | 1071.25 | 1489.7
m1 = 0.08226 | 1113.97 | 1109 | 1104.04 | 1094.12 | 1084.21 | 1074.31 | 1491.1
m1 = 0.1041 | 1117.67 | 1112.71 | 1107.76 | 1097.88 | 1088 | 1078.12 | 1493
m1 = 0.1277 | 1121.69 | 1116.74 | 1111.81 | 1101.96 | 1092.12 | 1082.29 | 1494.8
m1 = 0.1481 | 1125.19 | 1120.27 | 1115.34 | 1105.52 | 1095.7 | 1085.9 | 1496.7
m1 = 0.1734 | 1129.53 | 1124.62 | 1119.72 | 1109.94 | 1100.17 | 1090.39 | 1498.8
m1 = 0.1952 | 1133.31 | 1128.4 | 1123.52 | 1113.77 | 1104.03 | 1094.3 | 1500.8

CO [methanol] + O=S(=O)([O-])C(F)(F)F.O=S(=O)([O-])C(F)(F)F.[Be+2]
m2 = 0
Details | mass density [kg/m3]
283.15 K | 800.552
288.15 K | 795.874
293.15 K | 791.179
298.15 K | 786.469
303.15 K | 781.742
308.15 K | 776.993
313.15 K | 772.216

CO [methanol] + O=S(=O)([O-])C(F)(F)F.[Na+]
m2 = 0
Details | mass density [kg/m3]
283.15 K | 800.544
288.15 K | 795.854
293.15 K | 791.158
298.15 K | 786.447
303.15 K | 781.714
308.15 K | 776.97
313.15 K | 772.195

CO [methanol] + [Ba+2].[O-][Cl+3]([O-])([O-])[O-].[O-][Cl+3]([O-])([O-])[O-]
m2 = 0
Details | mass density [kg/m3]
283.15 K | 800.555
288.15 K | 795.877
293.15 K | 791.18
298.15 K | 786.468
303.15 K | 781.739
308.15 K | 776.993
313.15 K | 772.219

CO [methanol] + [Ca+2].[O-][Cl+3]([O-])([O-])[O-].[O-][Cl+3]([O-])([O-])[O-]
m2 = 0
Details | mass density [kg/m3]
283.15 K | 800.54
288.15 K | 795.862
293.15 K | 791.168
298.15 K | 786.458
303.15 K | 781.732
308.15 K | 776.98
313.15 K | 772.203

CO [methanol] + [Mg+2].[O-][Cl+3]([O-])([O-])[O-].[O-][Cl+3]([O-])([O-])[O-]
m2 = 0
Details | mass density [kg/m3]
283.15 K | 800.542
288.15 K | 795.864
293.15 K | 791.17
298.15 K | 786.46
303.15 K | 781.735
308.15 K | 776.985
313.15 K | 772.206

CO [methanol] + [O-][Cl+3]([O-])([O-])[O-].[O-][Cl+3]([O-])([O-])[O-].[Sr+2]
m2 = 0
Details | mass density [kg/m3]
283.15 K | 800.547
288.15 K | 795.856
293.15 K | 791.16
298.15 K | 786.447
303.15 K | 781.721
308.15 K | 776.973
313.15 K | 772.194
